In brackets after ≈: the same amount, converted by molar mass. Several values for one entry are separate records, joined by “and”; a condition that tells them apart may be missing. Equal entries are not always repeated. Where two headings read alike, the source gives them in different places.
How the values were obtained:
M. bovis BCG [1] = assay: microbe, parasite or virus in culture; type: cell-based, Mycobacterium bovis BCG
[2] = Mouse PK, combined (cassette) dosing of BGAz-001–005; type: in vivo, KM mice; set-up: AUMC(0-t) / VRT(0-t) / λz: unit not given here; details: for AUC(0-t): read-out: AUC(0-t); for MRT last: read-out: MRT(0-t); for MRT inf: read-out: MRT(0-∞); for Vd/F: read-out: Vz/F
Text: Methods for combined single dosing (BGAz001–005) and dosing of single compounds multiple times (BGAz004 and BGAz005) are described in detail in the Supporting Information (PK Data).
Report on PK Results of Combined Dosing with BGAz-001–005
1 Materials and instrument combined dosing
An MS2 Turnover type oscillator was purchased from IKA Work’s Guangzhou (China), and a 5415R ChromatographicanalyseswereconductedusinganAgilent1290InfinityIIhighperformanceliquidchromatography andAgilentTechnologies6470TripleQuadLC/MS.Propranolol(≥90%inpurity,internalstandard,IS)waspurchased fromtheSigmaChemicalCo.(China).Formicacid(HPLCgrade)andmethanol(HPLCgrade)werepurchasedfrom DIKMACo.(China).Allchemicalsandsolventswereanalyticalgrade.WaterwaspurifiedusingaMillipore(AK,USA) laboratoryultra-purewatersystem(0.2μmfilter).
KMmice,weighing25–35g(BeijingVitalRiverLaboratoryAnimalTechnologyCo.,Ltd.,China)wereutilisedforthe studies.The protocols were approved by the Animal Care and Use Committee, GIBH. Animals were maintained on standard animal chow and waterad libitum, in a climate-controlled room (23±1 °C 30–70% relative humidity, a minimumof tenexchangesof roomairperhouranda12hlight/darkcycle)foroneweekpriortoexperiments.
3 Pharmacokinetic studies
Compounds BGAz-001 ，BGAz-002 ，BGAz-003 ，BGAz-004 and BGAz-005 were dissolved mixed in a solution containing DMSO (2%),ethanol (4%), Cremophor EL (4%) and ddH2O (90%); Pharmacokinetic propertiesof KM (male) were determined following IV, PO and IP administration. Animals were randomly distributed into three experimentalgroups(n=4).ThePOgroupwasgivenmixedsolutionwith5mg/kgbygastricgavage.TheIVgroup was dosed with mixed solution 1mg/kg byinjection into the tail vein. The IP group was dosed with mixed solution 1mg/kg by intraperitoneal injection. After single administration, whole blood samples (100 μL) were obtained from the orbital venousplexus atthe followingtime pointsafter dosing:5, 15,30 minand 1,3, 5,8, 24hour (PO and IP groups) and at the following time points after dosing 2, 10, 30min and 1, 3, 5, 8,24 hour (IV group). Wholeblood samples were collected in heparinised tubes. The plasma fraction was immediately separated by centrifugation. The micewerehumanelyeuthanasiabycarbondioxide24hoursafterexperimentwithoutpain.
4 Plasma sample and brain sample analysis
4.1 Standard curve sample preparation
ThecompoundsweredissolvedinDMSO(2mg/mL)anddilutedwithtoseriesconcentration(methanol:H 2O,1:1,10 μL) and blank plasma (50 μL) were added to 1.5 mL tubes and vortexed for 3 min, then acetonitrile-containing internalstandard(150μL)wasaddedandvortexedforafurther5min,andsubsequentlyspuninacentrifugeat13000 […]
4.2 Plasma and preparation
Plasmasampleswerepreparedusingaproteinprecipitationmethod.Solution(10μL,methanolH 2O,1:1)andplasma samples(50μL)wereaddedto1.5mLtubesandvortexfor3min,thenacetonitrile-containinginternalstandard(150 μL)wasaddedandvortexfor5min,andsubsequentlyspuninacentrifugeat13000× gfor40minat4°C.
Aftercentrifugation,supernatant(100μL)wastransferto96wellplatesandanalysedbyLC-MS/MSusinganAgilent 1290InfinityIIHPLCandanAgilentTechnologies6470TripleQuadLC/MS.

M. bovis BCG [3] = type: cell-based, Mycobacterium bovis BCG
BCG pTIC6-fbpB = type: cell-based, Mycobacterium bovis BCG
[4] = IP 1 mg/kg, cassette, mean of animals
[5] = IV 1 mg/kg, cassette, mean of animals
[6] = PO 5 mg/kg, cassette, mean of animals
[7] = male, KM, mouse, plasma, IP 1 mg/kg, cassette
[8] = male, KM, mouse, plasma, IP 1 mg/kg, cassette, mean of animals
[9] = male, KM, mouse, plasma, IV 1 mg/kg, cassette
[10] = male, KM, mouse, plasma, IV 1 mg/kg, cassette, mean of animals
[11] = male, KM, mouse, plasma, PO 5 mg/kg, cassette
[12] = male, KM, mouse, plasma, PO 5 mg/kg, cassette, mean of animals

CNCC1CC(c2ccc(OC(F)(F)F)cc2)N1Cc1ccccc1OC(F)(F)F (stereo not shown) [BGAz-005]
MIC99 (M. bovis BCG [1]; Mycobacterium tuberculosis variant bovis BCG, BCG, read-out: BCG MIC99): 21 µM (≈ 9.12 µg/mL)
MIC50 (M. bovis BCG [1]; Mycobacterium tuberculosis variant bovis BCG, BCG, read-out: MIC50 BCG): 20 µM (≈ 8.69 µg/mL)
MIC99 (M. bovis BCG [1]; Mycobacterium tuberculosis variant bovis BCG, BCG, read-out: MIC99 BCG): 21 µM (≈ 9.12 µg/mL)
increase in activity against M. bovis BCG compared to BGAz-001 (M. bovis BCG [1]; fold, from MIC99): approximately three-fold increase
AUMC(0-t) [2, 4]: 2746.024 **μg
AUMC(0-∞) [2, 4]: 5711.413 **μg
CLz/F [2, 4]: 2.157 L/kg
C_last [2, 4]: 5.459 µg
R_AUC(t/∞) [2, 4]: 83.575%
VRT(0-t) [2, 4]: 43.817 ^2
VRT(0-∞) [2, 4]: 202.71 ^2
λz [2, 4]: 0.079 1/
AUC(0-∞) ([2]; IP 1 mg/kg, cassette, summary table): 464.151 µg·h
AUMC(0-t) [2, 5]: 2221.012 **μg
AUMC(0-∞) [2, 5]: 3469.367 **μg
CLz/F [2, 5]: 2.386 L/kg
C_last [2, 5]: 2.531 µg
R_AUC(t/∞) [2, 5]: 91.7%
VRT(0-t) [2, 5]: 45.323 ^2
VRT(0-∞) [2, 5]: 139.16 ^2
Vz/F [2, 5]: 28.599 L/kg
λz [2, 5]: 0.098 1/
AUC(0-∞) ([2]; IV 1 mg/kg, cassette, summary table): 424.729 µg·h
BA ([2]; PO 5 mg/kg vs IV 1 mg/kg, cassette): 72.63%
AUMC(0-t) [2, 6]: 6391.819 **μg
AUMC(0-∞) [2, 6]: 80528.925 **μg
CLz/F [2, 6]: 14.928 L/kg
C_last [2, 6]: 18.45 µg
R_AUC(t/∞) [2, 6]: 55.825%
VRT(0-t) [2, 6]: 47.178 ^2
VRT(0-∞) [2, 6]: 2247.307 ^2
λz [2, 6]: 0.017 1/
AUC(0-∞) ([2]; PO 5 mg/kg, cassette, summary table): 1542.381 µg·h
AUC(0-inf) ([2]; male, KM, mouse, plasma, ip, 1 mg/kg, IP 1 mg/kg, cassette, mean of animals, read-out: AUC(0-∞)): 464 ng·h/mL
Cmax ([2]; male, KM, mouse, plasma, ip, 1 mg/kg, IP 1 mg/kg, cassette, mean of animals, read-out: Cmax): 41.9 ng/mL
Tmax ([2]; male, KM, mouse, plasma, ip, 1 mg/kg, IP 1 mg/kg, cassette, mean of animals, read-out: Tmax): 0.646 h
Cmax ([2]; male, KM, mouse, plasma, ip, 1 mg/kg, IP 1 mg/kg, cassette, summary table, read-out: Cmax): 41.9 ng/mL
half-life ([2]; male, KM, mouse, plasma, ip, 1 mg/kg, IP 1 mg/kg, cassette, summary table, read-out: T1/2 (converted)): 9.34 h
Tmax ([2]; male, KM, mouse, plasma, ip, 1 mg/kg, IP 1 mg/kg, cassette, summary table, read-out: Tmax): 0.646 h
AUC(0-inf) ([2]; male, KM, mouse, plasma, iv, 1 mg/kg, IV 1 mg/kg, cassette, mean of animals, read-out: AUC(0-∞)): 425 ng·h/mL
Cmax ([2]; male, KM, mouse, plasma, iv, 1 mg/kg, IV 1 mg/kg, cassette, mean of animals, read-out: Cmax): 320 ng/mL
Tmax ([2]; male, KM, mouse, plasma, iv, 1 mg/kg, IV 1 mg/kg, cassette, mean of animals, read-out: Tmax): 0.033 h
Cmax ([2]; male, KM, mouse, plasma, iv, 1 mg/kg, IV 1 mg/kg, cassette, summary table, read-out: Cmax): 320 ng/mL
half-life ([2]; male, KM, mouse, plasma, iv, 1 mg/kg, IV 1 mg/kg, cassette, summary table, read-out: T1/2 (converted)): 8.05 h
Tmax ([2]; male, KM, mouse, plasma, iv, 1 mg/kg, IV 1 mg/kg, cassette, summary table, read-out: Tmax): 0.033 h
AUC(0-inf) ([2]; male, KM, mouse, plasma, po, 5 mg/kg, 5 mg/kg PO, cassette dosing, read-out: AUC0-inf): 1540 ng·h/mL
Cmax ([2]; male, KM, mouse, plasma, po, 5 mg/kg, 5 mg/kg PO, cassette dosing, read-out: Cmax (Mouse, P.O.)): 43.1 ng/mL
half-life ([2]; male, KM, mouse, plasma, po, 5 mg/kg, 5 mg/kg PO, cassette dosing, read-out: T1/2 (Mouse, P.O.) (converted)): 35.7 h
Tmax ([2]; male, KM, mouse, plasma, po, 5 mg/kg, 5 mg/kg PO, cassette dosing, read-out: Tmax (Mouse, P.O.)): 6 h
AUC(0-inf) ([2]; male, KM, mouse, plasma, po, 5 mg/kg, PO 5 mg/kg, cassette, mean of animals, read-out: AUC(0-∞)): 1540 ng·h/mL
Cmax ([2]; male, KM, mouse, plasma, po, 5 mg/kg, PO 5 mg/kg, cassette, mean of animals, read-out: Cmax): 43.1 ng/mL
Tmax ([2]; male, KM, mouse, plasma, po, 5 mg/kg, PO 5 mg/kg, cassette, mean of animals, read-out: Tmax): 6 h
Cmax ([2]; male, KM, mouse, plasma, po, 5 mg/kg, PO 5 mg/kg, cassette, summary table, read-out: Cmax): 43.1 ng/mL
half-life ([2]; male, KM, mouse, plasma, po, 5 mg/kg, PO 5 mg/kg, cassette, summary table, read-out: T1/2 (converted)): 35.7 h
Tmax ([2]; male, KM, mouse, plasma, po, 5 mg/kg, PO 5 mg/kg, cassette, summary table, read-out: Tmax): 6 h
concentration at 0.083 h [2, 7]: 27 ng/mL and 60 nM
concentration at 0.25 h [2, 7]: 70 nM and 29.8 ng/mL
concentration at 0.5 h [2, 7]: 80 nM and 36.3 ng/mL
concentration at 1 h [2, 7]: 90 nM and 39.8 ng/mL
concentration at 3 h [2, 7]: 80 nM and 33.4 ng/mL
concentration at 5 h [2, 7]: 50 nM and 21.3 ng/mL
concentration at 8 h [2, 7]: 40 nM and 15.4 ng/mL
concentration at 24 h [2, 7]: 10 nM and 5.44 ng/mL
AUC(0-t) [2, 8]: 388 ng·h/mL
MRT last [2, 8]: 7.13 h
MRT inf [2, 8]: 12.3 h
Vd/F [2, 8]: 28.9 L/kg
concentration at 0.033 h ([2]; male, KM, mouse, plasma, IV 1 mg/kg, cassette, 0.033 h): 320 ng/mL and 740 nM
concentration at 0.167 h ([2]; male, KM, mouse, plasma, IV 1 mg/kg, cassette, 0.167 h): 330 nM and 145 ng/mL
concentration at 0.5 h [2, 9]: 170 nM and 75.2 ng/mL
concentration at 1 h [2, 9]: 120 nM and 50.1 ng/mL
concentration at 3 h [2, 9]: 60 nM and 25.4 ng/mL
concentration at 5 h [2, 9]: 40 nM and 16.1 ng/mL
concentration at 8 h [2, 9]: 20 nM and 10.3 ng/mL
concentration at 24 h [2, 9]: 10 nM and 5.2 ng/mL
C0 [2, 10]: 392 ng/mL
AUC(0-t) [2, 10]: 392 ng·h/mL
MRT last [2, 10]: 5.5 h
MRT inf [2, 10]: 8.24 h
concentration at 0.083 h [2, 11]: 7.08 ng/mL and 20 nM
concentration at 0.25 h [2, 11]: 30 nM and 11.3 ng/mL
concentration at 0.5 h [2, 11]: 50 nM and 20.4 ng/mL
concentration at 1 h [2, 11]: 70 nM and 32.5 ng/mL
concentration at 3 h [2, 11]: 90 nM and 39.1 ng/mL
concentration at 5 h [2, 11]: 90 nM and 37.6 ng/mL
concentration at 8 h [2, 11]: 90 nM and 40.2 ng/mL
concentration at 24 h [2, 11]: 60 nM and 24.3 ng/mL
AUC(0-t) [2, 12]: 621 ng·h/mL
MRT last [2, 12]: 8.45 h
MRT inf [2, 12]: 38.7 h
Vd/F [2, 12]: 129 L/kg
log2FoldChange, gene BCG_0001 (M. bovis BCG [3]): -0.2829
log2FoldChange, gene BCG_0002 (M. bovis BCG [3]): -0.6164
log2FoldChange, gene BCG_0003 (M. bovis BCG [3]): -0.7815
log2FoldChange, gene BCG_0004 (M. bovis BCG [3]): -0.2846
log2FoldChange, gene BCG_0005 (M. bovis BCG [3]): 0.5809
induced genes (M. bovis BCG [3]; 8 h exposure, 1 × MIC): 160
repressed genes (M. bovis BCG [3]; 8 h exposure, 1 × MIC): 126
BCG pTIC6-fbpB MIC (BCG pTIC6-fbpB): 50 µM
increase in MIC upon overexpression of FbpB (BCG pTIC6-fbpB): two-fold increase

Source: PMC10895678 (Journal of Medicinal Chemistry, 2024)
